Test system: MV-4-11 cells
Assay: Gene expression microarray analysis (Affymetrix PrimeView) and GSEA
Format: cell-based, human
Set-up: RFU PODN (11730768_x_at) / Fold change /veh PODN (11730768_x_at) / RFU LINC00158 (11744669_a_at) / Fold change /veh LINC00158 (11744669_a_at) / RFU DUSP10 (11751237_a_at) / Fold change /veh DUSP10 (11751237_a_at) / RFU ID3 (11757404_x_at) / Fold change /veh ID3 (11757404_x_at) / RFU PLEKHG5 (11737974_s_at) / Fold change /veh PLEKHG5 (11737974_s_at) / RFU LRRC4B (11730491_at) / Fold change /veh LRRC4B (11730491_at) / RFU GIMAP4 (11747438_a_at) / Fold change /veh GIMAP4 (11747438_a_at) / RFU KRT8 (11758183_x_at) / Fold change /veh KRT8 (11758183_x_at) / RFU CNN1 (11734310_a_at) / Fold change /veh CNN1 (11734310_a_at) / RFU VPS37D (11726825_at) / Fold change /veh VPS37D (11726825_at) / RFU C10orf10 (11716522_x_at) / Fold change /veh C10orf10 (11716522_x_at) / RFU KIR2DL2 /// KIR2DL4 /// KIR2DL5A /// KIR2DL5B /// KIR2DS1 /// KIR2DS2 /// KIR2DS3 /// KIR2DS4 /// KIR3DL3 /// KIR3DL3 /// KIR3DS1 (11738374_at) / Fold change /veh KIR2DL2 /// KIR2DL4 /// KIR2DL5A /// KIR2DL5B /// KIR2DS1 /// KIR2DS2 /// KIR2DS3 /// KIR2DS4 /// KIR3DL3 /// KIR3DL3 /// KIR3DS1 (11738374_at) / RFU C1QL1 (11718748_at) / Fold change /veh C1QL1 (11718748_at) / RFU TMPRSS4 (11747572_a_at) / Fold change /veh TMPRSS4 (11747572_a_at) / RFU HAMP (11756126_x_at) / Fold change /veh HAMP (11756126_x_at) / RFU RNFT2 (11725882_a_at) / Fold change /veh RNFT2 (11725882_a_at) / RFU NR4A2 (11747474_a_at) / Fold change /veh NR4A2 (11747474_a_at) / RFU ABCC12 (11746883_a_at) / Fold change /veh ABCC12 (11746883_a_at) / RFU TMEM136 (11760407_x_at) / Fold change /veh TMEM136 (11760407_x_at) / RFU CLDN22 /// WWC2 (11732394_at) / Fold change /veh CLDN22 /// WWC2 (11732394_at) / RFU HLA-DPB1 (11760878_x_at) / Fold change /veh HLA-DPB1 (11760878_x_at) / RFU SPINT1 (11716480_a_at) / Fold change /veh SPINT1 (11716480_a_at) / RFU GAP43 (11754022_s_at) / Fold change /veh GAP43 (11754022_s_at) / RFU A4GNT (11735810_at) / Fold change /veh A4GNT (11735810_at) / RFU PRB3 (11715151_x_at) / Fold change /veh PRB3 (11715151_x_at) / RFU TUBB4B (11761932_at) / Fold change /veh TUBB4B (11761932_at) / RFU CAPN14 (11732068_a_at) / Fold change /veh CAPN14 (11732068_a_at) / RFU TMCC2 (11721928_a_at) / Fold change /veh TMCC2 (11721928_a_at) / RFU IRGQ (11745062_a_at) / Fold change /veh IRGQ (11745062_a_at) / RFU FAM174B (11720279_a_at) / Fold change /veh FAM174B (11720279_a_at) / RFU TMPRSS4 (11748680_a_at) / Fold change /veh TMPRSS4 (11748680_a_at) / RFU FAM212B (11763350_a_at) / Fold change /veh FAM212B (11763350_a_at) / RFU PLEKHG5 (11743358_a_at) / Fold change /veh PLEKHG5 (11743358_a_at) / RFU ZSCAN30 (11745921_a_at) / Fold change /veh ZSCAN30 (11745921_a_at) / RFU CMKLR1 (11741424_a_at) / Fold change /veh CMKLR1 (11741424_a_at) / RFU LOC101060620 /// MAPK8IP1 (11723275_at) / Fold change /veh LOC101060620 /// MAPK8IP1 (11723275_at) / RFU SPTSSB (11747773_x_at) / Fold change /veh SPTSSB (11747773_x_at) / RFU PRSS12 (11739890_at) / Fold change /veh PRSS12 (11739890_at) / RFU BIN1 (11741810_x_at) / Fold change /veh BIN1 (11741810_x_at) / RFU WNT11 (11732464_a_at) / Fold change /veh WNT11 (11732464_a_at) / RFU C10orf10 (11716521_a_at) / Fold change /veh C10orf10 (11716521_a_at) / RFU C5orf56 (11738089_at) / Fold change /veh C5orf56 (11738089_at) / RFU CYB561 (11721691_x_at) / Fold change /veh CYB561 (11721691_x_at) / RFU ANKRD19P (11752326_a_at) / Fold change /veh ANKRD19P (11752326_a_at) / RFU OR2T12 /// OR2T33 /// OR2T8 (11738714_s_at) / Fold change /veh OR2T12 /// OR2T33 /// OR2T8 (11738714_s_at) / RFU VCAN (11748164_a_at) / Fold change /veh VCAN (11748164_a_at) / RFU JSRP1 (11732532_at) / Fold change /veh JSRP1 (11732532_at) / RFU KRTAP10-11 (11738290_x_at) / Fold change /veh KRTAP10-11 (11738290_x_at) / RFU MYO3A (11730013_a_at) / Fold change /veh MYO3A (11730013_a_at) / RFU EBF3 (11725865_a_at) / Fold change /veh EBF3 (11725865_a_at) / RFU CAMK2N1 (11719241_x_at) / Fold change /veh CAMK2N1 (11719241_x_at) / RFU C5orf56 (11738088_a_at) / Fold change /veh C5orf56 (11738088_a_at) / RFU OLFML3 (11715873_a_at) / Fold change /veh OLFML3 (11715873_a_at) / RFU LOC100653217 /// NTM (11731650_a_at) / Fold change /veh LOC100653217 /// NTM (11731650_a_at) / RFU MAPK11 (11762145_a_at) / Fold change /veh MAPK11 (11762145_a_at) / RFU FIZ1 (11724087_x_at) / Fold change /veh FIZ1 (11724087_x_at) / RFU OASL (11726364_x_at) / Fold change /veh OASL (11726364_x_at) / RFU SOX15 (11748057_x_at) / Fold change /veh SOX15 (11748057_x_at) / RFU CD79A (11719716_a_at) / Fold change /veh CD79A (11719716_a_at) / RFU HIST1H1D (11736915_at) / Fold change /veh HIST1H1D (11736915_at) / RFU CASKIN2 (11723855_a_at) / Fold change /veh CASKIN2 (11723855_a_at) / RFU LOC730098 (11760151_x_at) / Fold change /veh LOC730098 (11760151_x_at) / RFU OR4N2 (11742367_at) / Fold change /veh OR4N2 (11742367_at) / RFU PRRT2 (11749266_a_at) / Fold change /veh PRRT2 (11749266_a_at) / RFU SNX32 (11753110_a_at) / Fold change /veh SNX32 (11753110_a_at) / RFU CDHR5 (11726645_a_at) / Fold change /veh CDHR5 (11726645_a_at) / RFU RCAN1 (11760418_a_at) / Fold change /veh RCAN1 (11760418_a_at) / RFU FAM167A (11723789_a_at) / Fold change /veh FAM167A (11723789_a_at) / RFU FAM26E (11764081_at) / Fold change /veh FAM26E (11764081_at) / RFU ISYNA1 (11749810_s_at) / Fold change /veh ISYNA1 (11749810_s_at) / RFU ACY1 (11761880_at) / Fold change /veh ACY1 (11761880_at) / RFU 11764098_at / Fold change /veh 11764098_at / RFU SAMD14 (11745864_x_at) / Fold change /veh SAMD14 (11745864_x_at) / RFU NPB (11741838_a_at) / Fold change /veh NPB (11741838_a_at) / RFU TMPRSS6 (11731388_a_at) / Fold change /veh TMPRSS6 (11731388_a_at) / RFU KRTAP10-2 (11738614_at) / Fold change /veh KRTAP10-2 (11738614_at) / RFU ARHGAP8 /// PRR5-ARHGAP8 (11727945_x_at) / Fold change /veh ARHGAP8 /// PRR5-ARHGAP8 (11727945_x_at) / RFU KRTAP5-7 /// NADSYN1 (11734609_at) / Fold change /veh KRTAP5-7 /// NADSYN1 (11734609_at) / RFU RASL12 (11751679_a_at) / Fold change /veh RASL12 (11751679_a_at) / RFU CDKN2B (11736163_a_at) / Fold change /veh CDKN2B (11736163_a_at) / RFU PRF1 (11729649_at) / Fold change /veh PRF1 (11729649_at) / RFU, ZNF638 /// ZNF638-IT1 / Fold change vs veh, ZNF638 /// ZNF638-IT1 / RFU, PANK3 / Fold change vs veh, PANK3 / RFU, SH3YL1 / Fold change vs veh, SH3YL1 / RFU, ZEB2 / Fold change vs veh, ZEB2 / RFU, NRIP1 / Fold change vs veh, NRIP1 / RFU, PTTG1IP / Fold change vs veh, PTTG1IP / RFU, CAPN2 / Fold change vs veh, CAPN2 / RFU, MED14 / Fold change vs veh, MED14 / RFU, SNORA58 / Fold change vs veh, SNORA58 / RFU, C1orf63 / Fold change vs veh, C1orf63 / RFU, LRRFIP1 / Fold change vs veh, LRRFIP1 / RFU, NDUFAF7 / Fold change vs veh, NDUFAF7 / RFU, SLC12A2 / Fold change vs veh, SLC12A2 / RFU, IBTK / Fold change vs veh, IBTK / RFU, ESF1 / Fold change vs veh, ESF1 / Fold change vs veh, TMEM50B / RFU, TAOK1 / Fold change vs veh, TAOK1 / RFU, ACBD3 / Fold change vs veh, ACBD3 / RFU, TMA16 / Fold change vs veh, TMA16 / RFU, RWDD3 / Fold change vs veh, RWDD3 / RFU, BCAT1 / Fold change vs veh, BCAT1 / RFU, EDEM3 / Fold change vs veh, EDEM3 / RFU, TMEM33 / Fold change vs veh, TMEM33 / RFU, WDR75 / Fold change vs veh, WDR75 / RFU, AHCTF1 / Fold change vs veh, AHCTF1 / RFU, TFRC / Fold change vs veh, TFRC / RFU, ZDHHC17 / Fold change vs veh, ZDHHC17 / RFU, NOM1 / Fold change vs veh, NOM1 / RFU, ARL8B / Fold change vs veh, ARL8B / RFU, ZBTB11 / Fold change vs veh, ZBTB11 / RFU, TAMM41 / Fold change vs veh, TAMM41 / RFU, KIAA1704 /// LOC100996395 / Fold change vs veh, KIAA1704 /// LOC100996395 / RFU, ING1 / Fold change vs veh, ING1 / RFU, TRMT61B / Fold change vs veh, TRMT61B / RFU, FUBP3 / Fold change vs veh, FUBP3 / RFU, TP53 / Fold change vs veh, TP53 / RFU, TNKS2 / Fold change vs veh, TNKS2 / RFU, ZFP14 / Fold change vs veh, ZFP14 / RFU, ACTR2 / Fold change vs veh, ACTR2 / RFU, PPP3R1 / Fold change vs veh, PPP3R1 / RFU, PIK3R1 / Fold change vs veh, PIK3R1 / RFU, HNRNPA1 / Fold change vs veh, HNRNPA1 / RFU, RNF170 / Fold change vs veh, RNF170 / RFU, ZNF28 / Fold change vs veh, ZNF28 / RFU, RNGTT / Fold change vs veh, RNGTT / RFU, OGT / Fold change vs veh, OGT / RFU, BRD1 / Fold change vs veh, BRD1 / RFU, MARS / Fold change vs veh, MARS / RFU, ZNF655 / Fold change vs veh, ZNF655 / RFU, FAHD1 / Fold change vs veh, FAHD1 / RFU, BDP1 / Fold change vs veh, BDP1 / RFU, LRRCC1 / Fold change vs veh, LRRCC1 / RFU, ARID1A / Fold change vs veh, ARID1A / RFU, ZNF146 / Fold change vs veh, ZNF146 / RFU, ZNF330 / Fold change vs veh, ZNF330 / RFU, GPN3 / Fold change vs veh, GPN3 / RFU, C9orf123 / Fold change vs veh, C9orf123 / RFU, N4BP2L2 / Fold change vs veh, N4BP2L2 / RFU, ARFIP1 / Fold change vs veh, ARFIP1 / RFU, FAM179B / Fold change vs veh, FAM179B / RFU, BCL10 / Fold change vs veh, BCL10 / RFU, UHRF1BP1L / Fold change vs veh, UHRF1BP1L / RFU, BET1 / Fold change vs veh, BET1 / RFU, CNOT2 / Fold change vs veh, CNOT2 / RFU, ZNF268 / Fold change vs veh, ZNF268 / Fold change vs veh, ZNF507 / RFU, DGCR2 / Fold change vs veh, DGCR2 / RFU, WDSUB1 / Fold change vs veh, WDSUB1 / Fold change vs veh, HSP90B1 /// MIR3652 / RFU, ADSS / Fold change vs veh, ADSS / RFU, GK / Fold change vs veh, GK / RFU, ZNF148 / Fold change vs veh, ZNF148 / RFU, TAF9 / Fold change vs veh, TAF9 / RFU, SLC1A5 / Fold change vs veh, SLC1A5 / RFU, SLMO2 / Fold change vs veh, SLMO2 / RFU, ABCC4 / Fold change vs veh, ABCC4 / RFU, LOC101060439 /// RAP1B / Fold change vs veh, LOC101060439 /// RAP1B / RFU, RFX7 / Fold change vs veh, RFX7 / RFU, GTPBP10 / Fold change vs veh, GTPBP10 / RFU, CNEP1R1 / Fold change vs veh, CNEP1R1 / RFU, BIVM-ERCC5 /// ERCC5 / Fold change vs veh, BIVM-ERCC5 /// ERCC5 / RFU, ILF3 / Fold change vs veh, ILF3 / RFU 11762660_at / Fold change /veh 11762660_at / RFU VCAN (11757783_s_at) / Fold change /veh VCAN (11757783_s_at) / RFU DDX43 (11728927_at) / Fold change /veh DDX43 (11728927_at) / RFU KRT8 (11758188_x_at) / Fold change /veh KRT8 (11758188_x_at) / RFU NKD1 (11759106_at) / Fold change /veh NKD1 (11759106_at) / RFU SRD5A1 (11742802_a_at) / Fold change /veh SRD5A1 (11742802_a_at) / RFU TPSAB1 /// TPSB2 (11721975_s_at) / Fold change /veh TPSAB1 /// TPSB2 (11721975_s_at) / RFU GSTM3 (11746129_a_at) / Fold change /veh GSTM3 (11746129_a_at) / RFU IL23R (11737362_x_at) / Fold change /veh IL23R (11737362_x_at) / RFU TMEM51 (11727254_a_at) / Fold change /veh TMEM51 (11727254_a_at) / RFU PIWIL2 (11732686_x_at) / Fold change /veh PIWIL2 (11732686_x_at) / RFU ORM1 (11744905_x_at) / Fold change /veh ORM1 (11744905_x_at) / RFU CCDC152 (11743942_at) / Fold change /veh CCDC152 (11743942_at) / RFU ECM1 (11717891_a_at) / Fold change /veh ECM1 (11717891_a_at) / RFU IL23R (11748794_a_at) / Fold change /veh IL23R (11748794_a_at) / RFU TNFAIP8L3 (11732012_x_at) / Fold change /veh TNFAIP8L3 (11732012_x_at) / RFU MBOAT4 (11741988_at) / Fold change /veh MBOAT4 (11741988_at) / RFU 11764193_at / Fold change /veh 11764193_at / RFU TMEM53 (11763286_at) / Fold change /veh TMEM53 (11763286_at) / RFU MAGEB2 (11727129_at) / Fold change /veh MAGEB2 (11727129_at) / RFU TMEM200A (11744735_a_at) / Fold change /veh TMEM200A (11744735_a_at) / RFU CCDC152 (11751479_a_at) / Fold change /veh CCDC152 (11751479_a_at) / RFU FAM211A (11726209_a_at) / Fold change /veh FAM211A (11726209_a_at) / RFU RGS16 (11746705_a_at) / Fold change /veh RGS16 (11746705_a_at) / RFU VCAN (11755009_s_at) / Fold change /veh VCAN (11755009_s_at) / RFU RHOB (11743442_s_at) / Fold change /veh RHOB (11743442_s_at) / RFU RGS16 (11720943_a_at) / Fold change /veh RGS16 (11720943_a_at) / RFU RGS16 (11720944_at) / Fold change /veh RGS16 (11720944_at) / RFU, VPS4B / Fold change vs veh, VPS4B / RFU, CREB1 / Fold change vs veh, CREB1 / RFU, DNAJC13 / Fold change vs veh, DNAJC13 / RFU, GNAQ / Fold change vs veh, GNAQ / RFU, CDK5R1 / Fold change vs veh, CDK5R1 / RFU, ZRANB3 / Fold change vs veh, ZRANB3 / RFU, CUL4A / Fold change vs veh, CUL4A / RFU, CCNY / Fold change vs veh, CCNY / RFU, UFL1 / Fold change vs veh, UFL1 / RFU, COG3 / Fold change vs veh, COG3 / RFU, DIAPH2 / Fold change vs veh, DIAPH2 / RFU, SKA2 / Fold change vs veh, SKA2 / RFU, AFF3 / Fold change vs veh, AFF3 / RFU, LMF1 / Fold change vs veh, LMF1 / RFU, IPO11 / Fold change vs veh, IPO11 / RFU, DFFB / Fold change vs veh, DFFB / RFU, FOXP1 / Fold change vs veh, FOXP1 / RFU, CARD8 / Fold change vs veh, CARD8 / RFU, STRN3 / Fold change vs veh, STRN3 / RFU, ADK / Fold change vs veh, ADK / RFU, RASSF2 / Fold change vs veh, RASSF2 / RFU, WIPF1 / Fold change vs veh, WIPF1 / RFU, LARP1B / Fold change vs veh, LARP1B / RFU, RASA1 / Fold change vs veh, RASA1 / RFU, RB1 / Fold change vs veh, RB1 / RFU, PPFIA1 / Fold change vs veh, PPFIA1 / RFU, MAT2A / Fold change vs veh, MAT2A / RFU, CCT5 / Fold change vs veh, CCT5 / RFU, WDR92 / Fold change vs veh, WDR92 / RFU, CUX1 / Fold change vs veh, CUX1 / RFU, TTC7A / Fold change vs veh, TTC7A / RFU, TMEM135 / Fold change vs veh, TMEM135 / RFU, DEPTOR / Fold change vs veh, DEPTOR / RFU, CPM / Fold change vs veh, CPM / RFU, DNAJB6 / Fold change vs veh, DNAJB6 / RFU, CACNA2D3 / Fold change vs veh, CACNA2D3 / RFU, DTX4 / Fold change vs veh, DTX4 / RFU, TFCP2 / Fold change vs veh, TFCP2 / RFU, GMCL1 /// GMCL1P1 / Fold change vs veh, GMCL1 /// GMCL1P1 / RFU, AEBP2 / Fold change vs veh, AEBP2 / RFU, SNHG1 /// SNORD22 /// SNORD25 /// SNORD26 /// SNORD27 /// SNORD28 /// SNORD29 /// SNORD31 / Fold change vs veh, SNHG1 /// SNORD22 /// SNORD25 /// SNORD26 /// SNORD27 /// SNORD28 /// SNORD29 /// SNORD31 / Fold change (Aza/veh), C12orf56 (ProbeSet 11735607_a_at) / Fold change (ACY-1035/veh), C12orf56 (ProbeSet 11735607_a_at) / Fold change (Aza/veh), FGFR1OP (ProbeSet 11751329_s_at) / Fold change (ACY-1035/veh), FGFR1OP (ProbeSet 11751329_s_at) / Fold change (Aza/veh), VPS36 (ProbeSet 11739960_a_at) / Fold change (ACY-1035/veh), VPS36 (ProbeSet 11739960_a_at) / RFU SYPL1 (11715823_x_at) / Fold change /veh SYPL1 (11715823_x_at) / RFU IGFBP7 (11715501_s_at) / Fold change /veh IGFBP7 (11715501_s_at) / RFU REEP3 (11722064_at) / Fold change /veh REEP3 (11722064_at) / RFU IGLL1 (11728026_x_at) / Fold change /veh IGLL1 (11728026_x_at): dose or concentration left out as unconfirmed
Conditions: MV-4-11 cells, 48 hours

`Nc1ncn([C@@H]2O[C@H](CO)[C@@H](O)[C@H]2O)c(=O)n1` [azacitidine] was tested. Which “RFU EBF3 (11725865_a_at)” value did it give?
The value was 64.76 RFU.

Reference: article PMC5218480 (PLoS ONE, 2017)
